Measured values taken from patent US20200170975A1 (Strongbridge Dublin Limited, priority 2018, published 2020).
Like-named read-outs stand apart in the source and are kept apart here.

Key:
[1] = cited from earlier work
[2] = biological target: MATE2-K (Homo sapiens, UniProt Q86VL8); conditions: for Uptake, MATE2-K (Average ± SD): MATE2-K HEK293 cells; for Uptake, MATE2-K (Average ± SD) / % control / Background corrected uptake rate / Uptake, Control (Average ± SD): [14C]-Metformin 10 μM; for Uptake, Control (Average ± SD): control HEK293 cells
Method: (§1) [^14C]-Metformin (1 mM) was provided as a solid and was prepared in Hank's balanced salt solution (HBSS).
(§2) Cells were plated onto standard 24-well tissue culture plates in cell culture medium 1 to 3 days before the experiment. MATE1 and MATE2-K and control cells were incubated with butyric acid (10 mM) for 24 hours before the experiment to inhibit suppression of the transporter.

[3] = biological target: T1, MATE1 (Homo sapiens, UniProt Q96FL8); conditions: for % control / Background corrected uptake rate: HEK293 cells; for Uptake, MATE1 (Average ± SD): MATE1 HEK293 cells; for Uptake, Control (Average ± SD): control HEK293 cells
T1 sequence (Q96FL8 1-570): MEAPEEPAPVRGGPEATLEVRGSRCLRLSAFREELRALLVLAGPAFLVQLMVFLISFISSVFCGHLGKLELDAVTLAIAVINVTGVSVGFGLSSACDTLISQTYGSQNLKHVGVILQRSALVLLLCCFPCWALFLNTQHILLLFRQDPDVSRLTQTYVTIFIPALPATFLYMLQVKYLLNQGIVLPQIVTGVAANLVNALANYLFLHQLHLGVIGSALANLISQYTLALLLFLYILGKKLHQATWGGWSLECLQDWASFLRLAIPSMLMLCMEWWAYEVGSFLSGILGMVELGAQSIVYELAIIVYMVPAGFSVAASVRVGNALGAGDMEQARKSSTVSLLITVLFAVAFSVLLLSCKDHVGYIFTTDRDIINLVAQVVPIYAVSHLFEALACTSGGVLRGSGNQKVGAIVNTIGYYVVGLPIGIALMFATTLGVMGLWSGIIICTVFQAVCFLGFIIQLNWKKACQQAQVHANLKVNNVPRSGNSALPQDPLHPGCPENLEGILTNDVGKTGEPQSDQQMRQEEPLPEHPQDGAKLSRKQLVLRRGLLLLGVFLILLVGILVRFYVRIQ
Method: as §1, §2

[4] = biological target: T2, OCT1 (Homo sapiens, UniProt O15245); conditions: for Uptake, OCT1 (Average ± SD): OCT1 HEK293 cells; for Uptake, OCT1 (Average ± SD) / % control / Background corrected uptake rate / Uptake, Control (Average ± SD): [14C]-TEA bromide 5 μM; for Uptake, Control (Average ± SD): control HEK293 cells
T2 sequence (O15245 1-554): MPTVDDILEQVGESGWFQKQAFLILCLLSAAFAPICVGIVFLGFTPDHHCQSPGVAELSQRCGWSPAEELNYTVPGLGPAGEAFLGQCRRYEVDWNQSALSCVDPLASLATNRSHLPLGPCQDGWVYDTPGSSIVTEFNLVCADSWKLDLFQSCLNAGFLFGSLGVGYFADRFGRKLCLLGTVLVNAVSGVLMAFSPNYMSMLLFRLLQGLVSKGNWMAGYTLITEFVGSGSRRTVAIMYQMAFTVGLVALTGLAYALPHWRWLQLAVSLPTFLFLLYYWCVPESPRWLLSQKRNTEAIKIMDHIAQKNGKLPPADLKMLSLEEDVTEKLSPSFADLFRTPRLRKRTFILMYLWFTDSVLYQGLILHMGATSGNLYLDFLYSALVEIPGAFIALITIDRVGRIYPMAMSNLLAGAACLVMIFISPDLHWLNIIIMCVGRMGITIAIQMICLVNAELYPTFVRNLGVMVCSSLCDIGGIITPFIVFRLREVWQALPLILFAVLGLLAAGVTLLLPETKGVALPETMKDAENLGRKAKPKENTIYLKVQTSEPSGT

[5] = biological target: T2, OCT1

Chain of MATE2-K (Q86VL8 1-566 isoform Q86VL8-3): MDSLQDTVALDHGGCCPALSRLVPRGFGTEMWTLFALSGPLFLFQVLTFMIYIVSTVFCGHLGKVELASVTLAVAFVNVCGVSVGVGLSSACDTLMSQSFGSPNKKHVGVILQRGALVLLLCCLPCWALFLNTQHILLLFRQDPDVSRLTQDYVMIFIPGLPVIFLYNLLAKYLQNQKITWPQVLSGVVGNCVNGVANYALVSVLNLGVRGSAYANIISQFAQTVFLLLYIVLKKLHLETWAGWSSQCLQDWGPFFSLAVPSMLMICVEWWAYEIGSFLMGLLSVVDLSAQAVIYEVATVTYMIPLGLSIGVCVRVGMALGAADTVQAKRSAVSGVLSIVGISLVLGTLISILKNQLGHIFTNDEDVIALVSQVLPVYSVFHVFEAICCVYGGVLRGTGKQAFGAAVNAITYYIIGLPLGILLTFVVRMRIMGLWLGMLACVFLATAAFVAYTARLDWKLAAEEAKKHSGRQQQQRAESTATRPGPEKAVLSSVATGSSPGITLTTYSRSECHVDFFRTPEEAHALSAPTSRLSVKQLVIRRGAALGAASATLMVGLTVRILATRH

NS(=O)(=O)c1cc(Cl)c(Cl)c(S(N)(=O)=O)c1 [Dichlorphenamide, 4,5-dichloro-1,3-benzenedisulfonamide]
solubility in dilute solutions of sodium carbonate and sodium hydroxide ([1]; dilute solutions of sodium carbonate and sodium hydroxide): soluble
stability of dilute alkaline solutions ([1]; room temperature): stable
solubility in water ([1]; water): very slightly soluble
IC50 [2]: > 1000 µM
Uptake, MATE2-K (Average ± SD) ([2]; inhibitor 1 μM): 149 ± 29 pmol/mg protein
Uptake, MATE2-K (Average ± SD) ([2]; inhibitor 3 μM): 159 ± 19 pmol/mg protein
Uptake, MATE2-K (Average ± SD) ([2]; inhibitor 10 μM): 113 ± 8 pmol/mg protein
Uptake, MATE2-K (Average ± SD) ([2]; inhibitor 30 μM): 124 ± 36 pmol/mg protein
Uptake, MATE2-K (Average ± SD) ([2]; inhibitor 100 μM): 137 ± 15 pmol/mg protein
Uptake, MATE2-K (Average ± SD) ([2]; inhibitor 300 μM): 166 ± 16 pmol/mg protein
Uptake, MATE2-K (Average ± SD) ([2]; inhibitor 1000 μM): 106 ± 29 pmol/mg protein
% control ([2]; inhibitor 1 μM): 101%
Background corrected uptake rate ([2]; inhibitor 1 μM): 28.0 pmol/mg/min
% control ([2]; inhibitor 3 μM): 108%
Background corrected uptake rate ([2]; inhibitor 3 μM): 29.9 pmol/mg/min
% control ([2]; inhibitor 10 μM): 76.1%
Background corrected uptake rate ([2]; inhibitor 10 μM): 21.0 pmol/mg/min
% control ([2]; inhibitor 30 μM): 83.7%
Background corrected uptake rate ([2]; inhibitor 30 μM): 23.1 pmol/mg/min
% control ([2]; inhibitor 100 μM): 92.4%
Background corrected uptake rate ([2]; inhibitor 100 μM): 25.5 pmol/mg/min
% control ([2]; inhibitor 300 μM): 114%
Background corrected uptake rate ([2]; inhibitor 300 μM): 31.4 pmol/mg/min
% control ([2]; inhibitor 1000 μM): 73.2%
Background corrected uptake rate ([2]; inhibitor 1000 μM): 20.2 pmol/mg/min
Uptake, Control (Average ± SD) ([2]; inhibitor 1 μM): 9.21 ± 0.93 pmol/mg protein
Uptake, Control (Average ± SD) ([2]; inhibitor 3 μM): 9.44 ± 2.27 pmol/mg protein
Uptake, Control (Average ± SD) ([2]; inhibitor 10 μM): 8.28 ± 1.46 pmol/mg protein
Uptake, Control (Average ± SD) ([2]; inhibitor 30 μM): 8.51 ± 1.05 pmol/mg protein
Uptake, Control (Average ± SD) ([2]; inhibitor 100 μM): 9.21 ± 1.52 pmol/mg protein
Uptake, Control (Average ± SD) ([2]; inhibitor 300 μM): 8.86 ± 0.93 pmol/mg protein
Uptake, Control (Average ± SD) ([2]; inhibitor 1000 μM): 5.13 ± 0.40 pmol/mg protein
IC50 ([2]; human, pH 8.5): > 1000 µM
IC50 [3]: > 1000 µM
% control ([3]; inhibitor 1 μm): 104%
Background corrected uptake rate ([3]; inhibitor 1 μm): 85.8 pmol/mg/min
% control ([3]; inhibitor 3 μm): 95.2%
Background corrected uptake rate ([3]; inhibitor 3 μm): 78.8 pmol/mg/min
% control ([3]; inhibitor 10 μm): 96.4%
Background corrected uptake rate ([3]; inhibitor 10 μm): 79.8 pmol/mg/min
% control ([3]; inhibitor 30 μm): 103%
Background corrected uptake rate ([3]; inhibitor 30 μm): 85.0 pmol/mg/min
% control ([3]; inhibitor 100 μm): 99.8%
Background corrected uptake rate ([3]; inhibitor 100 μm): 82.6 pmol/mg/min
% control ([3]; inhibitor 300 μm): 94.7%
Background corrected uptake rate ([3]; inhibitor 300 μm): 78.4 pmol/mg/min
% control ([3]; inhibitor 1000 μm): 90.3%
Background corrected uptake rate ([3]; inhibitor 1000 μm): 74.7 pmol/mg/min
Uptake, MATE1 (Average ± SD) ([3]; inhibitor 1 μm): 436 ± 23 pmol/mg protein
Uptake, MATE1 (Average ± SD) ([3]; inhibitor 3 μm): 401 ± 7 pmol/mg protein
Uptake, MATE1 (Average ± SD) ([3]; inhibitor 10 μm): 406 ± 12 pmol/mg protein
Uptake, MATE1 (Average ± SD) ([3]; inhibitor 30 μm): 432 ± 10 pmol/mg protein
Uptake, MATE1 (Average ± SD) ([3]; inhibitor 100 μm): 421 ± 17 pmol/mg protein
Uptake, MATE1 (Average ± SD) ([3]; inhibitor 300 μm): 398 ± 17 pmol/mg protein
Uptake, MATE1 (Average ± SD) ([3]; inhibitor 1000 μm): 379 ± 13 pmol/mg protein
Uptake, Control (Average ± SD) ([3]; inhibitor 1 μm): 6.66 ± 1.31 pmol/mg protein
Uptake, Control (Average ± SD) ([3]; inhibitor 3 μm): 6.75 ± 1.65 pmol/mg protein
Uptake, Control (Average ± SD) ([3]; inhibitor 10 μm): 7.43 ± 1.34 pmol/mg protein
Uptake, Control (Average ± SD) ([3]; inhibitor 30 μm): 6.79 ± 0.89 pmol/mg protein
Uptake, Control (Average ± SD) ([3]; inhibitor 100 μm): 7.52 ± 0.96 pmol/mg protein
Uptake, Control (Average ± SD) ([3]; inhibitor 300 μm): 5.56 ± 0.16 pmol/mg protein
Uptake, Control (Average ± SD) ([3]; inhibitor 1000 μm): 5.52 ± 0.21 pmol/mg protein
IC50 ([3]; human, pH 8.5): > 1000 µM
Uptake, OCT1 (Average ± SD) ([4]; inhibitor 1 μm): 121 ± 11 pmol/mg protein
Uptake, OCT1 (Average ± SD) ([4]; inhibitor 3 μm): 125 ± 5 pmol/mg protein
Uptake, OCT1 (Average ± SD) ([4]; inhibitor 10 μm): 111 ± 4 pmol/mg protein
Uptake, OCT1 (Average ± SD) ([4]; inhibitor 30 μm): 122 ± 14 pmol/mg protein
Uptake, OCT1 (Average ± SD) ([4]; inhibitor 100 μm): 128 ± 6 pmol/mg protein
Uptake, OCT1 (Average ± SD) ([4]; inhibitor 300 μm): 130 ± 10 pmol/mg protein
Uptake, OCT1 (Average ± SD) ([4]; inhibitor 1000 μm): 77.9 ± 3.0 pmol/mg protein
% control ([4]; inhibitor 1 μm): 98.6%
Background corrected uptake rate ([4]; inhibitor 1 μm): 7.76 pmol/mg/min
% control ([4]; inhibitor 3 μm): 102%
Background corrected uptake rate ([4]; inhibitor 3 μm): 8.07 pmol/mg/min
% control ([4]; inhibitor 10 μm): 90.6%
Background corrected uptake rate ([4]; inhibitor 10 μm): 7.13 pmol/mg/min
% control ([4]; inhibitor 30 μm): 99.7%
Background corrected uptake rate ([4]; inhibitor 30 μm): 7.85 pmol/mg/min
% control ([4]; inhibitor 100 μm): 105%
Background corrected uptake rate ([4]; inhibitor 100 μm): 8.26 pmol/mg/min
% control ([4]; inhibitor 300 μm): 107%
Background corrected uptake rate ([4]; inhibitor 300 μm): 8.40 pmol/mg/min
% control ([4]; inhibitor 1000 μm): 63.5%
Background corrected uptake rate ([4]; inhibitor 1000 μm): 5.00 pmol/mg/min
Uptake, Control (Average ± SD) ([4]; inhibitor 1 μm): 4.28 ± 1.48 pmol/mg protein
Uptake, Control (Average ± SD) ([4]; inhibitor 3 μm): 4.44 ± 1.97 pmol/mg protein
Uptake, Control (Average ± SD) ([4]; inhibitor 10 μm): 4.28 ± 0.92 pmol/mg protein
Uptake, Control (Average ± SD) ([4]; inhibitor 30 μm): 3.88 ± 0.48 pmol/mg protein
Uptake, Control (Average ± SD) ([4]; inhibitor 100 μm): 4.12 ± 0.73 pmol/mg protein
Uptake, Control (Average ± SD) ([4]; inhibitor 300 μm): 3.88 ± 1.11 pmol/mg protein
Uptake, Control (Average ± SD) ([4]; inhibitor 1000 μm): 2.99 ± 1.46 pmol/mg protein
IC50 ([4]; human, pH 7.4): > 1000 µM
IC50 [5]: > 1000 µM
